Assay results published in patent US20250249025A1, “DRUG DELIVERY CARRIER UTILIZING PROPERTY OF D-ALLOSE BEING UPTAKEN BY CANCER CELL, DRUG DELIVERY METHOD, AND COMPOSITION FOR TREATING RENAL CELL CARCINOMA” (NATIONAL UNIVERSITY CORPORATION KAGAWA UNIVERSITY, priority 2019, published 2025).

Experiments:
[1] = system: xenograft mouse model made using ACHN; assay: Change of tumor volume by intraperitoneal D-allose injection, ACHN xenograft mouse model; type: in vivo, mice; settings: 400 mg/kg intraperitoneal once a day, on and after day 13, Mann-Whitney U test
Method: The experiment of the present example used two human renal cell carcinoma cell lines (Caki-I and ACHN). Each cell was cultured under the wet environment of 37° C. and 5% CO2 by using a RPMI-1640 culture solution (2000 mg D-glucose/L) containing a 10% fetal calf serum, a HEPES buffer, and penicillin-streptomycin.
With respect to a renal cell carcinoma xenograft mouse model, a 1.0×10^5 cells/ml of a cell suspension was obtained by adjusting the cultured cells with a MEM culture solution and then 0.1 ml of the resulting suspension was injected into the femoral subcutaneous tissue of Female athymic nude mice (BALB/c-nu/nu, 6-week-old). After checking that the tumor volume was 200 mm^3 or more one week after the injection, the mice were provided for the experiment thereafter.
The day when the tumor size of the renal cell carcinoma xenograft mouse models became 200 mm^3 or more was called day 0 and the intraperitoneal injection of a D-allose-containing solution was started from day 1. The solution injected is 0.4 mL of physiological saline or a solution obtained by dissolving 100 mg/kg or 400 mg/kg of D-allose in 0.4 mL physiological saline. […] The body weight of the mice and the long and short diameters of the tumor were measured over time twice a week. […]

[2] = system: human prostate carcinoma cell line LNCa; assay: Rare sugar uptake experiment, sugar content in disrupted cell suspension of LNCa; type: cell-based
Method: An uptake amount of a rare sugar, which had been added to a medium, into carcinoma cells was analyzed using the cell lines of three types of cancers. As the rare sugar, four kinds, that is, D-allose, D-allulose (D-psicose), L-allulose (L-psicose), and allitol were used, while D-glucose and fructose were used as a monosaccharide which was not a rare sugar.
Cells of each of the cell lines were cultured in RPMI-1640 media and during culturing, six sugars were each added to the resulting media and cultured. After culturing, an amount of each sugar taken up into the cells was analyzed. The medium to which no sugar was added during culturing was used as a control.
Used were human bladder carcinoma cell lines (RT112, 253), and J82), human prostatic carcinoma cell lines (LNCa, Du145, and PC-3), and human renal cell carcinoma cell lines (ACHN, Caki-I, and Caki-II).
After cells were cultured in RPMI-1640 (2000 mg D-glucose/L) media, the above monosaccharides and rare sugars were added to the resulting media, respectively. Described specifically, they were following seven combinations: RPMI-1640 alone (control), RPMI-1640+D-glucose, RPMI-1640+L-allulose, RPMI-1640+D-allulose, RPMI-1640+D-fructose, RPMI-1640+D-allose, and RPMI-1640+D-allitol. The final concentration of the sugar in the medium was adjusted to 10 mM and no sugar was added in the control.
Five-ml portions of a 3.0×10^4 cells/ml cell suspension prepared using RPMI-1640 were seeded in dishes having a diameter of 6 cm (1.5×10^5 cells/dish) and cultured for 24 hours in the RPMI-1640 medium containing 2000 mg/l of D-glucose as a nutrient source. Twenty-four hours later, the media were changed to the culture solutions containing the monosaccharides and rare sugars described above in 2), respectively, followed by culturing for 48 hours.
After culturing for 48 hours, the attached human carcinoma cells were mechanically separated and collected in a Spitz tube together with the culture solution and floating cells. After the supernatant formed by centrifugation (4° C., 1200 rpm, and 5 minutes) was removed to obtain cell pellets alone, 5 ml of a phosphate buffer physiological saline (PBS) was added for the purpose of washing to obtain a cell suspension of the cell pellets. A gain, the resulting cell suspension was centrifuged at 4° C. and 1200 rpm for 5 minutes and the supernatant was removed. To the cell pellets after washing was added 1 ml of pure water to suspend them therein. Ultrasonic disruption (intensity: 40%, 30 seconds) was then performed and the monosaccharide in the disrupted cell suspension was labeled with ABEE, followed by analysis by HPLC. From the area thus obtained, the sugar content in the cells was determined using a calibration curve. With respect to the ketose, two peaks were found after labeling with ABEE so that the sugar content in the cells was determined from the calibration curves of both peaks.

[3] = Fundamental safety tests (mutagenicity, biodegradability, oral acute toxicity, skin and eye primary irritation); settings: conducted by a designated agency at the inventors' request
Text: With respect to the verification of the safety of D-allose necessary for the use of it as a pharmaceutical ingredient, it was expectable that it was safe because a rare sugar was a monosaccharide present in nature, though its amount was trace. A mutagenicity test, a biodegradability test, and three acute toxicity tests (oral acute toxicity test, skin primary irritation test, and eye primary irritation test) have been determined as the most fundamental safety tests. The present inventors asked a designated agency to conduct the fundamental safety tests of D-allose.

For `O=C[C@H](O)[C@H](O)[C@H](O)[C@H](O)CO` [D-allose], the “Tumor volume versus Control group” value [1] was “significantly smaller than the Control group”, the “D-glucose content in cell” value ([2]; LNCa, named sugar added to RPMI-1640 at 10 mM, 48 hours, HPLC after ABEE labeling) was 11.2 µg and the “Content in cell of the added sugar” value ([2]; human, 48 h, 10 mM) was 0.0 µg. The “Result of fundamental safety tests” value [3] was “no safety problems”.
